According to paper PMC8659243, “Design, Synthesis and Tumour-Selective Toxicity of Novel 1-[3-{3,5-Bis(benzylidene)-4-oxo-1-piperidino}-3-oxopropyl]-4-piperidone Oximes and Related Quaternary Ammonium Salts” (Molecules, 2021):
Like-named read-outs stand apart in the source and are kept apart here.

Columns and labels:
[1] = Cytotoxicity against non-malignant HPC cells, MTT method, 48 h; format: cell-based; conditions: human, pulp cells (HPC)
Method: (§1) A literature procedure was followed when the compounds in series 3 and 4 were evaluated against three human oral squamous cell carcinoma cell lines Ca9-22 (RCB-1976), HSC-2 (RCB1945), HSC-4 (RCB1902) (purchased from RIKEN Cell Bank, Tukuba, Japan) and three human normal oral cells, gingival fibroblast (HGF), periodontal ligament fibroblast (HPLF) and pulp cells (HPC) (established according to the guideline of the intramural ethic committee, A0808) except the duration of incubation was increased from 24 h to 48 h. In brief, various concentrations of the compounds were added to the DMEM media, which was supplemented by 10% heat-inactivated fetal bovine serum. Incubation was undertaken at 37 °C. At the completion of the experiment, cell viability was determined by the MTT method.

[2] = Average over HGF, HPLF and HPC non-malignant cells; format: cell-based; conditions: human, HPLF and HPC non-malignant cells (average of the three)
Method: as §1

[3] = Cytotoxicity against non-malignant HPLF cells, MTT method, 48 h; format: cell-based; conditions: human, periodontal ligament fibroblasts (HPLF)
Method: as §1

[4] = test system: CEM T-lymphoblastic leukemia cells; experiment: Cytotoxicity against CEM cells, MTT method, 24 h; format: cell-based; conditions: Homo sapiens, CCRF-CEM, concentration required to inhibit cell growth by 50%
Method: The method used for the evaluation of various compounds against human CEM cells has been reported previously. In brief, cells were grown in RPMI-1640 medium supplemented with 10% heat-inactivated fetal bovine serum. Different concentrations of compounds were added to the media, and after 24 h incubation, cytotoxicity was measured by the MTT method.

[5] = test system: Ca9-22, HSC-2 and HSC-4 cells; experiment: Average over Ca9-22, HSC-2 and HSC-4 neoplastic cells; format: cell-based, human; conditions: for CC50: Homo sapiens, read-out: Average CC50; for Average SI: average of SI for Ca9-22, HSC-2 and HSC-4
Method: In order to assess whether the compounds in series 3 and 4 are more toxic to neoplasms than non-malignant cells, selective index (SI) figures were calculated. In the in vivo situation, a tumour is surrounded by a number of non-malignant cells.
In order to identify the most promising lead compounds in terms of both cytotoxic potencies and favourable SI values, potency–selectivity expression (PSE) values were computed. […] Outstanding results may be noted for four compounds that have PSE values in excess of 100,000 namely 3d, 4c–e. […] However, the relative SI/PSE distribution patterns between series 3 and 4 (from a to h) are nearly superimposable with each other (Figure 3). […] It has been reported that 3,5-bis(3-iodo-5-methoxy-4-propoxybenzylidene)-N-acetylpiperidin-4-one inhibited tubulin and destabilization of microtubules, while 3,5-bis(3,4,5-trimethoxybenzylidene)-N-benzoylpiperidin-4-one destabilizes the microtubules. Thus, it remained to investigate whether compound 4d acts as an inhibitor of the microtubule.
as §1

HSC-4 cells = experiment: Cytotoxicity against HSC-4 cells, MTT method, 48 h; format: cell-based, human; conditions: for CC50: Homo sapiens, read-out: CC50 HSC-4; for SI HSC-4: average CC50 towards HGF, HPLF, HPC divided by CC50 against HSC-4
Method: as §1

HSC-2 cells = experiment: Cytotoxicity against HSC-2 cells, MTT method, 48 h; format: cell-based, human; conditions: for CC50: Homo sapiens, HSC-2, concentration required to kill 50% of the cells, 48 h, MTT; for SI HSC-2: average CC50 towards HGF, HPLF, HPC divided by CC50 against HSC-2
Method: as §1

[6] = Cytotoxicity against non-malignant HGF cells, MTT method, 48 h; format: cell-based; conditions: human, gingival fibroblasts (HGF)
Method: as §1

Ca9-22 cells [7] = experiment: Cytotoxicity against Ca9-22 cells, MTT method, 48 h; format: cell-based, human; conditions: for CC50: Homo sapiens, read-out: CC50 Ca9-22; for SI Ca9-22: average CC50 towards HGF, HPLF, HPC divided by CC50 against Ca9-22
Method: as §1

Ca9-22 cells [8] = experiment: Cell cycle analysis and morphological changes in Ca9-22 cells; format: cell-based, human; conditions: 24 h
Method: Treated and untreated Ca9-22 cells (approximately 10^6 cells) were harvested, fixed with 1% paraformaldehyde, treated with 0.2 mg/mL RNase A (preheated for 10 min at 100 °C to inactivate DNase), stained for 15 min with 0.01% propidium iodide in the presence of 0.01% NP-40 to prevent cell aggregation, filtered through Falcon® cell strainers ([…]) (Corning, NY, USA), subjected to cell sorting (SH800 Series; SONY Imaging Products and Solutions Inc., Kanagawa, Japan) and then analyzed with Cell Sorter Software version 2.1.2. (SONY Imaging Products and Solutions Inc., Kanagawa, Japan), as described previously.

CEM cells = experiment: Effect on mitochondrial membrane potential, JC-1 dye, flow cytometry; format: cell-based, human; conditions: CC50 and twice CC50 concentrations, 8 h
Method: The effect of 4b,c on the mitochondrial membrane potential of CEM cells was determined using a literature method. In brief, the cells were incubated with the compounds for 8 h. The neoplasms were then stained with the JC-1 dye and the results were obtained using flow cytometry.

[9] = test system: HL-60 (TB), K-562, RPMI-8226 and SR cells; design: method as in PMID 24657568; conditions: read-out: average IC50 against HL-60 (TB), K-562, RPMI-8226 and SR cells; cited from earlier work
[10] = test system: COLO 205, HCC2998, HCT-15, KM12 and SW-620 cells; conditions: read-out: average IC50 against COLO 205, HCC2998, HCT-15, KM12 and SW-620 cells; cited from earlier work
[11] = Stability by 1H NMR in 9:1 deuterated dimethylsulfoxide and deuterium oxide; format: physicochemical; conditions: 37 °C
[12] = average of Ca9-22, HSC-2 and HSC-4
[13] = HSC-4, concentration required to kill 50% of the cells, 48 h, MTT
[14] = Ca9-22, concentration required to kill 50% of the cells, 48 h, MTT

C[N+]1(CCC(=O)N2C/C(=C\c3ccc(Cl)c(Cl)c3)C(=O)/C(=C/c3ccc(Cl)c(Cl)c3)C2)CCC(=NO)CC1 (stereo not drawn) [Compound 4d, (3~{E},5~{E})-3,5-bis[(3,4-dichlorophenyl)methylene]-1-[3-(4-hydroximino-1-piperidyl)propanoyl]piperidin-4-one methiodide]
CC50 at 48 h [1]: 3.81 ± 0.02 µM | CC50 at 48 h [2]: 2.36 µM | CC50 at 48 h [3]: 2.12 ± 0.2 µM | IC50 [4]: 5.19 ± 0.66 µM | CC50 [5, 12]: 0.02 µM | CC50 (HSC-4 cells; [13]): 0.03 µM | SI HSC-4 (HSC-4 cells): 78.7 | CC50 (HSC-2 cells): 0.03 µM | SI HSC-2 (HSC-2 cells): 78.7 | CC50 at 48 h [6]: 1.15 ± 0.41 µM | CC50 (Ca9-22 cells [7]; [14]): 0.01 µM | SI Ca9-22 (Ca9-22 cells [7]): 236 | morphological change and cell cycle effect (Ca9-22 cells [8]): induced cell spreading due to G2/M cell accumulation without the induction of a subG1 population

C[N+]1(CCC(=O)N2C/C(=C\c3ccc(F)cc3)C(=O)/C(=C/c3ccc(F)cc3)C2)CCC(=NO)CC1 (stereo not drawn) [Compound 4b, (3~{E},5~{E})-3,5-bis[(4-fluorophenyl)methylene]-1-[3-(4-hydroximino-1-piperidyl)propanoyl]piperidin-4-one methiodide]
CC50 at 48 h [1]: 11.3 ± 2.59 µM | CC50 at 48 h [2]: 8.31 µM | CC50 at 48 h [3]: 9.13 ± 0.48 µM | IC50 [4]: 1.05 ± 0.38 µM | CC50 [5, 12]: 0.31 µM | Average SI [5]: 29.4 | CC50 (HSC-4 cells; [13]): 0.21 ± 0.01 µM | SI HSC-4 (HSC-4 cells): 39.6 | CC50 (HSC-2 cells): 0.42 ± 0.14 µM | SI HSC-2 (HSC-2 cells): 19.8 | CC50 at 48 h [6]: 4.5 ± 1.39 µM | CC50 (Ca9-22 cells [7]; [14]): 0.29 ± 0.23 µM | SI Ca9-22 (Ca9-22 cells [7]): 28.7 | effect on the mitochondrial membrane potential (MMP) (CEM cells): interfered with the MMP

N[C@@H](Cc1ccc(N(CCCl)CCCl)cc1)C(=O)O [Melphalan, reference compound]
CC50 at 48 h [1]: > 200 µM | CC50 at 48 h [3]: 195 ± 4.04 µM | IC50 [9]: 56.7 µM | CC50 [5]: 26.7 µM | CC50 (HSC-4 cells; HSC-4, 48 h): 17.4 ± 0.88 µM | CC50 at 48 h [6]: 157 ± 38.2 µM | CC50 (Ca9-22 cells [7]; Ca9-22, 48 h): 48.5 ± 1.33 µM

O=c1[nH]cc(F)c(=O)[nH]1 [5-fluorouracil]
IC50 [10]: 8.46 µM

C[N+]1(CCC(=O)N2C/C(=C\c3ccc(Cl)cc3)C(=O)/C(=C/c3ccc(Cl)cc3)C2)CCC(=NO)CC1 (stereo not drawn) [Compound 4c, (3~{E},5~{E})-3,5-bis[(4-chlorophenyl)methylene]-1-[3-(4-hydroximino-1-piperidyl)propanoyl]piperidin-4-one methiodide]
CC50 at 48 h [1]: 6.3 ± 0.7 µM | CC50 at 48 h [2]: 4.04 µM | CC50 at 48 h [3]: 4.17 ± 1.44 µM | IC50 [4]: 4.96 ± 0.28 µM | CC50 [5, 12]: 0.06 µM | CC50 (HSC-4 cells; [13]): 0.09 ± 0.03 µM | SI HSC-4 (HSC-4 cells): 44.9 | CC50 (HSC-2 cells): 0.06 ± 0.01 µM | SI HSC-2 (HSC-2 cells): 67.3 | CC50 at 48 h [6]: 1.65 ± 0.17 µM | CC50 (Ca9-22 cells [7]; [14]): 0.02 ± 0.01 µM | SI Ca9-22 (Ca9-22 cells [7]): 202 | effect on the mitochondrial membrane potential (MMP) (CEM cells): interfered with the MMP

C[N+]1(CCC(=O)N2C/C(=C\c3ccccc3)C(=O)/C(=C/c3ccccc3)C2)CCC(=NO)CC1 (stereo not drawn) [Compound 4a, (3~{E},5~{E})-3,5-bis-benzylidine-1-[3-(4-hydroximino-1-piperidyl)propanoyl]piperidin-4-one methiodide]
CC50 at 48 h [1]: 16.8 ± 0.68 µM | stability: 1H NMR spectra in dissolution and after 48 h incubation [11]: identical | CC50 at 48 h [2]: 17 µM | CC50 at 48 h [3]: 24.6 ± 1.1 µM | melting point: 173 °C | IC50 [4]: 7.62 ± 1.44 µM | CC50 [5, 12]: 0.86 µM | Average SI [5]: 23.8 | CC50 (HSC-4 cells; [13]): 0.58 ± 0.04 µM | SI HSC-4 (HSC-4 cells): 29.3 | CC50 (HSC-2 cells): 1.45 ± 0.16 µM | SI HSC-2 (HSC-2 cells): 11.7 | CC50 at 48 h [6]: 9.65 ± 1.23 µM | CC50 (Ca9-22 cells [7]; [14]): 0.56 ± 0.01 µM | SI Ca9-22 (Ca9-22 cells [7]): 30.4
